Columns and labels:
Assay type in all cases: cell-based, Chinese hamster
[1] = system: CHO-DUX-B11 (dhfr-) cells transfected with pFR400 (pFR400.1); test: Growth inhibition by MTX, 3 day cell count assay, pFR400 transfected clone; conditions: Cricetulus griseus, 72 h; FR400.1 cells (colony from pFR400 transfected dhfr- cells, mutant DHFR 3T6 R400); 3 days, cells counted; read-out: 50 percent inhibition level
Protocol: (§1) A deficiency of the wild type DHFR as a selectable marker in tissue culture systems is the relatively low degree of MTX resistance conferred upon the transfected cells by the transfected wild type enzyme expression plasmid. […] Individual colonies were isolated from pFR400 or pFDll transfected dhfr- cells and propagated in the absence of MTX. Equal amounts of cells from two clones and of CHO-Kl cells were trypsinized and split into 60 mm dishes. Various levels of MTX were added to each dish, the cells incubated for 3 days, and then counted.
(§2) The pFDll transfected cells were clearly less capable of growing in high levels of MTX than were the CHO-K1 (DHFR^+) cells grown under identical conditions. The level of MTX which inhibits cell growth by 50 percent over the 3 day assay was approximately 3 nM for cells derived from the pFDll transfected colony (pFD11.1) and was 20nM for CHO-K1 cells. In contrast to this, the colony (pFR400.1) isolated from the cells transfected with pFR400, was able to grow in extremely high levels of MTX. The 50 percent inhibition level for FR400.1 cells is approximately 3000 nM.

CHO-K1 cells = test: Growth inhibition by MTX, 3 day cell count assay, untransformed wild type cells; conditions: Cricetulus griseus, 72 h, CHO-K1 (DHFR+) cells, 3 days, cells counted, read-out: level of MTX which inhibits cell growth by 50 percent over the 3 day assay
Protocol: as §1, §2

[2] = system: CHO-DUX-B11 (dhfr-) cells transfected with pFD11 (pFD11.1); test: Growth inhibition by MTX, 3 day cell count assay, pFD11 transfected clone; conditions: Cricetulus griseus, 72 h; cells from the pFD11 transfected colony (pFD11.1), wild type DHFR plasmid; 3 days, cells counted; read-out: level of MTX which inhibits cell growth by 50 percent over the 3 day assay
Protocol: as §1, §2

Question: With `CN(Cc1cnc2nc(N)nc(N)c2n1)c1ccc(C(=O)N[C@@H](CCC(=O)O)C(=O)O)cc1` [MTX, methotrexate] as the compound, how does the IC50 [1] read?
Answer: ~3000 nM

Question: What about the IC50 (CHO-K1 cells) of the same compound?
Answer: 20 nM

Question: What about the IC50 [2] of the same compound?
Answer: ~3 nM

From patent EP0117060A2, “Methods of screening and amplification in eukaryotic host cells, and nucleotide sequences and expression vectors for use therein” (GENENTECH, INC., priority 1983, dated 1984)
